From US20050282755A1, “Compositions having antimicrobial activity and uses thereof” (priority 2004, published 2005)
In brackets after ≈: the same amount, converted by molar mass. Starred links: 1 amine or outer side, 2 acyl side, 3 side chain; linkers in the order of their positions; H or OH if unused. Non-standard residues stand in square brackets, D forms with d. Residues, ends and D or L forms follow the SMILES beside them. *: point of attachment. Ethylenediamine = C(CN[*:2])N[*:1]; Lauroyl = CCCCCCCCCCCC(=O)*; Decanoyl = CCCCCCCCCC(=O)*; Octanoyl = CCCCCCCC(=O)*; Hexanoyl = CCCCCC(=O)*

Legend:
Type in all cases: cell-based
[1] = test system: Candida albicans ATCC 18804; test: MIC in yeasts, NCCLS M27-A2 broth microdilution, RPMI 1640 (Table 9, letter e); settings: ATCC 18804
Method in brief: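 Broth microdilution per NCCLS M27-A2 in RPMI 1640 with glutamine and phenol red, final inoculum 0.5×10^3–2.5×10^3 CFU/milliliter. Incubated 24 to 48 hours at 37° C; MIC is the lowest peptide concentration with no visible growth.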

[2] = test system: Staphylococcus epidermidis ATCC 12228; test: MIC, NCCLS M7-A6 broth microdilution (Table 9, no superscript); settings: ATCC 12228
Method in brief: (§1)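 CAMHB microdilution; final inoculum 5×10^5–1×10^6 CFU/milliliter from log-phase culture; overnight, 37° C; MIC = lowest peptide conc. without visible growth (turbidity) vs no-peptide control.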

Salmonella dublin (Lane) = test: as above
Method in brief: as §1

[3] = test system: Escherichia coli ATCC 25922; test: as above; settings: ATCC 25922
Method in brief: as §1

[4] = test system: Pseudomonas aeruginosa ATCC 27853; test: as above; settings: ATCC 27853
Method in brief: as §1

[5] = test system: Staphylococcus aureus ATCC 29213; test: MIC, NCCLS M7-A6 broth microdilution, cation-adjusted Mueller Hinton broth (Table 9, no superscript); settings: ATCC 29213
Method in brief: as §1

[6] = test system: Propionibacterium acnes ATCC 6919; test: MIC, agar dilution method NCCLS M11-A6, Brucella agar, anaerobic (Table 9, superscript c); settings: ATCC 6919
Method in brief: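 Agar dilution per NCCLS M11-A6 on Brucella agar; final inoculum 1.5×10^8 CFU/milliliter applied to plates, incubated 48-96 hours at 37° C. under anaerobic (GasPak) conditions. MIC = lowest peptide concentration with no colony growth.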

MIC C. albicans [1] | MIC S. epidermidis [2] | MIC S. dublin (Salmonella dublin (Lane)) | MIC E. coli [3] | MIC P. aeruginosa [4] | MIC S. aureus [5] | MIC P. acnes [6] | Compound
1e ug/mL | 1 µg/mL (≈ 0.507 µM) | 2 µg/mL (≈ 1.01 µM) | 4 µg/mL (≈ 2.03 µM) | 32 µg/mL (≈ 16.2 µM) | 4 µg/mL (≈ 2.03 µM) | 2c ug/mL | CCCCCCCCCCCC(=O)N[C@@H](CCCNC(=N)N)C(=O)N[C@@H](CO)C(=O)N[C@@H](CCCNC(=N)N)C(=O)N[C@@H](Cc1c[nH]c2ccccc12)C(=O)N[C@@H](CCCNC(=N)N)C(=O)N[C@@H](CC(=O)O)C(=O)N[C@H](C(=O)N[C@@H](CC(C)C)C(=O)N[C@@H](CCCNC(=N)N)C(=O)N[C@@H](CC(N)=O)C(=O)N[C@@H](Cc1ccccc1)C(=O)N[C@@H](CCSC)C(=O)N[C@@H](CCCNC(=N)N)C(N)=O)C(C)C [Peptide 134, Lauryl-RSRWRDVLRNFMR-NH2] (Lauroyl-RSRWRDVLRNFMR-NH2)
1e ug/mL | 1 µg/mL (≈ 0.511 µM) | 8 µg/mL (≈ 4.09 µM) | 8 µg/mL (≈ 4.09 µM) | 32 µg/mL (≈ 16.4 µM) | 4 µg/mL (≈ 2.05 µM) | 8c ug/mL | CCCCCCCCCCCC(=O)N[C@@H](CCCNC(=N)N)C(=O)N[C@@H](CO)C(=O)N[C@@H](CCCNC(=N)N)C(=O)N[C@@H](Cc1c[nH]c2ccccc12)C(=O)N[C@@H](CCCNC(=N)N)C(=O)N[C@@H](CC(=O)O)C(=O)N[C@H](C(=O)N[C@@H](CC(C)C)C(=O)N[C@@H](CCCNC(=N)N)C(=O)N[C@@H](CC(N)=O)C(=O)N[C@@H](Cc1ccccc1)C(=O)N[C@@H](CC(C)C)C(=O)N[C@@H](CCCNC(=N)N)C(N)=O)C(C)C [Peptide 136, Lauryl-RSRWRDVLRNFLR-NH2] (Lauroyl-RSRWRDVLRNFLR-NH2)
8e ug/mL | 2 µg/mL (≈ 1.02 µM) | 8 µg/mL (≈ 4.06 µM) | 8 µg/mL (≈ 4.06 µM) | 8 µg/mL (≈ 4.06 µM) | 4 µg/mL (≈ 2.03 µM) | 16c ug/mL | CCCCCCCCCCCC(=O)N[C@@H](CCCNC(=N)N)C(=O)N[C@@H](CO)C(=O)N[C@@H](CCCNC(=N)N)C(=O)N[C@@H](Cc1c[nH]c2ccccc12)C(=O)N[C@@H](CCCNC(=N)N)C(=O)N[C@@H](CC(=O)O)C(=O)N[C@H](C(=O)N[C@@H](C)C(=O)N[C@@H](CCCNC(=N)N)C(=O)N[C@@H](CC(N)=O)C(=O)N[C@@H](Cc1c[nH]c2ccccc12)C(=O)N[C@@H](CCSC)C(=O)N[C@@H](CCCNC(=N)N)C(N)=O)C(C)C [Peptide 139, Lauryl-RSRWRDVARNWMR-NH2] (Lauroyl-RSRWRDVARNWMR-NH2)
2e ug/mL | 2 µg/mL (≈ 0.991 µM) | 4 µg/mL (≈ 1.98 µM) | 4 µg/mL (≈ 1.98 µM) | 8 µg/mL (≈ 3.96 µM) | 2 µg/mL (≈ 0.991 µM) | 16c ug/mL | CCCCCCCCCCCC(=O)N[C@@H](CCCNC(=N)N)C(=O)N[C@@H](CO)C(=O)N[C@@H](CCCNC(=N)N)C(=O)N[C@@H](Cc1c[nH]c2ccccc12)C(=O)N[C@@H](CCCNC(=N)N)C(=O)N[C@@H](CC(=O)O)C(=O)N[C@@H](Cc1c[nH]c2ccccc12)C(=O)N[C@@H](C)C(=O)N[C@@H](CCCNC(=N)N)C(=O)N[C@@H](CC(N)=O)C(=O)N[C@@H](Cc1ccccc1)C(=O)N[C@@H](CCSC)C(=O)N[C@@H](CCCNC(=N)N)C(N)=O [Peptide 140, Lauryl-RSRWRDWARNFMR-NH2] (Lauroyl-RSRWRDWARNFMR-NH2)
2e ug/mL | 4 µg/mL (≈ 1.89 µM) | 16 µg/mL (≈ 7.56 µM) | 16 µg/mL (≈ 7.56 µM) | >64 µg/mL | 16 µg/mL (≈ 7.56 µM) | 32c ug/mL | CCCCCCCCCCCC(=O)N[C@@H](CCCNC(=N)N)C(=O)N[C@@H](CO)C(=O)N[C@@H](CCCNC(=N)N)C(=O)N[C@@H](Cc1c[nH]c2ccccc12)C(=O)N[C@@H](CCCNC(=N)N)C(=O)N[C@@H](CC(=O)O)C(=O)N[C@H](C(=O)N[C@@H](C)C(=O)N[C@@H](CCCNC(=N)N)C(=O)N[C@@H](CC(N)=O)C(=O)N[C@@H](Cc1ccccc1)C(=O)N[C@@H](CCSC)C(=O)N[C@@H](CCCNC(=N)N)C(=O)N[C@@H](Cc1c[nH]c2ccccc12)C(N)=O)C(C)C [Peptide 141, Lauryl-RSRWRDVARNFMRW-NH2] (Lauroyl-RSRWRDVARNFMRW-NH2)
4e ug/mL | 2 µg/mL (≈ 0.972 µM) | 4 µg/mL (≈ 1.94 µM) | 4 µg/mL (≈ 1.94 µM) | 16 µg/mL (≈ 7.78 µM) | 4 µg/mL (≈ 1.94 µM) | 2c ug/mL | CCCCCCCCCCCC(=O)N[C@@H](CCCNC(=N)N)C(=O)N[C@@H](CO)C(=O)N[C@@H](CCCNC(=N)N)C(=O)N[C@@H](Cc1c[nH]c2ccccc12)C(=O)N[C@@H](CCCNC(=N)N)C(=O)N[C@@H](CC(=O)O)C(=O)N[C@@H](Cc1c[nH]c2ccccc12)C(=O)N[C@@H](C)C(=O)N[C@@H](CCCNC(=N)N)C(=O)N[C@@H](CC(N)=O)C(=O)N[C@@H](Cc1c[nH]c2ccccc12)C(=O)N[C@@H](CCSC)C(=O)N[C@@H](CCCNC(=N)N)C(N)=O [Peptide 143, Lauryl-RSRWRDWARNWMR-NH2] (Lauroyl-RSRWRDWARNWMR-NH2)
32e ug/mL | 2 µg/mL (≈ 1.04 µM) | 16 µg/mL (≈ 8.28 µM) | 16 µg/mL (≈ 8.28 µM) | 4 µg/mL (≈ 2.07 µM) | 8 µg/mL (≈ 4.14 µM) | 8c ug/mL | CCCCCCCCCCCC(=O)N[C@@H](CCCNC(=N)N)C(=O)N[C@H](CO)C(=O)N[C@@H](CCCNC(=N)N)C(=O)N[C@H](Cc1c[nH]c2ccccc12)C(=O)N[C@@H](CCCNC(=N)N)C(=O)N[C@H](CC(=O)O)C(=O)N[C@@H](C(=O)N[C@H](C)C(=O)N[C@@H](CCCNC(=N)N)C(=O)N[C@H](CC(N)=O)C(=O)N[C@H](Cc1ccccc1)C(=O)N[C@H](CCSC)C(=O)N[C@@H](CCCNC(=N)N)C(N)=O)C(C)C [Peptide 158, Lauryl-RsRwRdvaRnfmR-NH2] (Lauroyl-R[dS]R[dW]R[dD][dV][dA]R[dN][dF][dM]R-NH2)
32e ug/mL | 1 µg/mL (≈ 0.534 µM) | 16 µg/mL (≈ 8.55 µM) | 2 µg/mL (≈ 1.07 µM) | 32 µg/mL (≈ 17.1 µM) | 16 µg/mL (≈ 8.55 µM) | 64c ug/mL | CCCCCC(=O)NCCNC(=O)[C@H](CCCNC(=N)N)NC(=O)[C@H](CC(C)C)NC(=O)[C@H](Cc1ccccc1)NC(=O)[C@H](CC(N)=O)NC(=O)[C@H](CCCNC(=N)N)NC(=O)[C@H](C)NC(=O)[C@@H](NC(=O)[C@H](CC(=O)O)NC(=O)[C@H](CCCNC(=N)N)NC(=O)[C@H](Cc1c[nH]c2ccccc12)NC(=O)[C@H](CCCNC(=N)N)NC(=O)[C@H](CO)NC(=O)[C@@H](N)CCCNC(=N)N)C(C)C [Peptide 168, H2N-RSRWRDVARNFLR-Ethylamidohexanyl] (H-RSRWRDVARNFLR-{Ethylenediamine-Hexanoyl}; C-terminus assumed)
64e ug/mL | 2 µg/mL (≈ 1.06 µM) | 32 µg/mL (≈ 16.9 µM) | 8 µg/mL (≈ 4.23 µM) | 16 µg/mL (≈ 8.46 µM) | 16 µg/mL (≈ 8.46 µM) | >64c ug/mL | CCCCCC(=O)NCCNC(=O)[C@H](CCCNC(=N)N)NC(=O)[C@H](CCSC)NC(=O)[C@H](Cc1ccccc1)NC(=O)[C@H](CC(N)=O)NC(=O)[C@H](CCCNC(=N)N)NC(=O)[C@H](C)NC(=O)[C@@H](NC(=O)[C@H](CC(=O)O)NC(=O)[C@H](CCCNC(=N)N)NC(=O)[C@H](Cc1c[nH]c2ccccc12)NC(=O)[C@H](CCCNC(=N)N)NC(=O)[C@H](CO)NC(=O)[C@@H](N)CCCNC(=N)N)C(C)C [Peptide 173, H2N-RSRWRDVARNFMR-Ethylamidohexanyl] (H-RSRWRDVARNFMR-{Ethylenediamine-Hexanoyl}; C-terminus assumed)
32e ug/mL | 1 µg/mL (≈ 0.521 µM) | 16 µg/mL (≈ 8.34 µM) | 2 µg/mL (≈ 1.04 µM) | 4 µg/mL (≈ 2.09 µM) | 8 µg/mL (≈ 4.17 µM) | 64c ug/mL | CCCCCCCC(=O)NCCNC(=O)[C@H](CCCNC(=N)N)NC(=O)[C@H](CCSC)NC(=O)[C@H](Cc1ccccc1)NC(=O)[C@H](CC(N)=O)NC(=O)[C@H](CCCNC(=N)N)NC(=O)[C@H](C)NC(=O)[C@@H](NC(=O)[C@H](CC(=O)O)NC(=O)[C@H](CCCNC(=N)N)NC(=O)[C@H](Cc1c[nH]c2ccccc12)NC(=O)[C@H](CCCNC(=N)N)NC(=O)[C@H](CO)NC(=O)[C@@H](N)CCCNC(=N)N)C(C)C [Peptide 174, H2N-RSRWRDVARNFMR-Ethylamidooctanyl] (H-RSRWRDVARNFMR-{Ethylenediamine-Octanoyl}; C-terminus assumed)
8e ug/mL | 1 µg/mL (≈ 0.514 µM) | 4 µg/mL (≈ 2.06 µM) | 4 µg/mL (≈ 2.06 µM) | 2 µg/mL (≈ 1.03 µM) | 4 µg/mL (≈ 2.06 µM) | 32c ug/mL | CCCCCCCCCC(=O)NCCNC(=O)[C@H](CCCNC(=N)N)NC(=O)[C@H](CCSC)NC(=O)[C@H](Cc1ccccc1)NC(=O)[C@H](CC(N)=O)NC(=O)[C@H](CCCNC(=N)N)NC(=O)[C@H](C)NC(=O)[C@@H](NC(=O)[C@H](CC(=O)O)NC(=O)[C@H](CCCNC(=N)N)NC(=O)[C@H](Cc1c[nH]c2ccccc12)NC(=O)[C@H](CCCNC(=N)N)NC(=O)[C@H](CO)NC(=O)[C@@H](N)CCCNC(=N)N)C(C)C [Peptide 175, H2N-RSRWRDVARNFMR-Ethylamidodecanyl] (H-RSRWRDVARNFMR-{Ethylenediamine-Decanoyl}; C-terminus assumed)
